{"source": "patent US5762960A", "about": "(Trustees of Tufts College, priority 1996, dated 1998)", "key": {"norepinephrine uptake": {"system": "norepinephrine uptake", "set-up": "Amine Uptakes Blocking Activity Norepinephrine: key to the marks not given beside the values", "details": "cited from earlier work; for Amine Uptakes Blocking Activity Norepinephrine: Table 3; for Interaction and blocking activity at the norepinephrine receptor site: in words, text commenting on Table 6"}, "[1]": {"details": "cited from earlier work"}, "dopamine uptake": {"system": "dopamine uptake", "details": "in words, footnote 5 of Table 6; cited from earlier work"}, "dopamine receptors": {"system": "dopamine receptors", "details": "in words, footnote 3 and text on Table 6; cited from earlier work"}, "[2]": {"system": "canine affective aggression behavior", "experiment": "Case histories: treatment of household dogs exhibiting canine affective aggression", "text": "The clinical diagnosis was affective aggression behavior which was dominance aggression and/fear aggression."}, "[3]": {"details": "Table 6, parent compound plus active metabolite"}, "[4]": {"details": "Case 4, Cocker Spaniel, orally 25 mg daily, after two months"}}, "note": "Like-named read-outs stand apart in the source and are kept apart here.", "data": [{"smiles": "CN(C)CCC=C1c2ccccc2CCc2ccccc21", "note": "[Amitriptyline]", "values": [{"measurement": "Amine Uptakes Blocking Activity Norepinephrine", "setting": "norepinephrine uptake", "result": "++"}, {"measurement": "Interaction and blocking activity at the norepinephrine receptor site", "setting": "norepinephrine uptake", "result": "modest or slight"}, {"measurement": "Half-life", "setting": "[1]; Table 3", "result": "31 to 46", "unit": "h"}, {"measurement": "Therapeutic Plasma Level", "setting": "[1]; Table 3, marked ^1, footnote printed only under Table 6: parent compound plus active metabolite", "result": "110 to 250", "unit": "ng/mL"}, {"measurement": "Half-life", "setting": "[1]; Table 6", "result": "31 to 46", "unit": "h"}, {"measurement": "Therapeutic plasma level", "setting": "[1]; [3]", "result": "110 to 250", "unit": "ng/mL"}, {"measurement": "Time to Reach Steady State", "setting": "[1]; in vivo", "result": "4 to 10", "unit": "days"}, {"measurement": "Time to reach steady state", "setting": "[1]; in vivo", "result": "4 to 10", "unit": "days"}]}, {"smiles": "CNCCC(Oc1ccc(C(F)(F)F)cc1)c1ccccc1", "note": "(stereo not drawn) [Fluoxetine, fluoxetine]", "values": [{"measurement": "Time to reach steady state", "setting": "[1]; in vivo", "result": "2-4 weeks"}]}, {"smiles": "CNCCCC1c2ccccc2C=Cc2ccccc21", "note": "[Protriptyline, protriptyline]", "values": [{"measurement": "Half-life", "setting": "[1]; human, in vivo", "result": "67 to 89", "unit": "h"}, {"measurement": "Therapeutic plasma level", "setting": "[1]; in vivo", "result": "100 to 200", "unit": "ng/mL"}, {"measurement": "Time to reach steady state", "setting": "[1]; in vivo", "result": "14 to 19", "unit": "days"}]}, {"smiles": "CN(C)CCCN1c2ccccc2CCc2ccccc21", "note": "[Imipramine, imipramine]", "values": [{"measurement": "Time to reach steady state", "setting": "[1]; in vivo", "result": "2 to 5", "unit": "days"}]}, {"smiles": "CC(NC(C)(C)C)C(=O)c1cccc(Cl)c1", "note": "(stereo not drawn) [Bupropion, bupropion]", "values": [{"measurement": "Dopamine uptake inhibition", "setting": "dopamine uptake", "result": "Inhibits dopamine uptake"}, {"measurement": "Half-life", "setting": "[1]; Table 6", "result": "8 to 24", "unit": "h"}, {"measurement": "Time to reach steady state", "setting": "[1]; Table 6", "result": "1.5 to 5", "unit": "days"}]}, {"smiles": "Fc1ccc([C@@H]2CCNC[C@H]2COc2ccc3c(c2)OCO3)cc1", "note": "[Paroxetine, paroxetine]", "values": [{"measurement": "Half-life", "setting": "[1]; Table 6", "result": "10 to 24", "unit": "h"}, {"measurement": "Time to reach steady state", "setting": "[1]; in vivo", "result": "7 to 14", "unit": "days"}]}, {"smiles": "Clc1ccc2c(c1)C(N1CCNCC1)=Nc1ccccc1O2", "note": "[Amoxapine, amoxapine]", "values": [{"measurement": "Dopamine receptor blockade / interaction", "setting": "dopamine receptors", "result": "blocks dopamine receptors"}, {"measurement": "Half-life", "setting": "[1]; human, in vivo", "result": 8, "unit": "h"}, {"measurement": "Therapeutic plasma level", "setting": "[1]; in vivo", "result": "200 to 500", "unit": "ng/mL"}, {"measurement": "Time to reach steady state", "setting": "[1]; in vivo", "result": "2 to 7", "unit": "days"}]}, {"smiles": "CNCCC=C1c2ccccc2CCc2ccccc21", "note": "[Nortriptyline, 3-(10,11-Dihydro-5H-dibenzo[a,d]cyclohepten-5-ylidene)-N-methyl-1-propamine]", "values": [{"measurement": "Half-life", "setting": "[1]; Table 3", "result": "18 to 44", "unit": "h"}, {"measurement": "Time to Reach Steady State", "setting": "[1]; Table 3", "result": "4 to 19", "unit": "days"}, {"measurement": "Half-life", "setting": "[1]; Table 6", "result": "18 to 44", "unit": "h"}, {"measurement": "Time to reach steady state", "setting": "[1]; Table 6", "result": "4 to 19", "unit": "days"}]}, {"smiles": "CNCCCN1c2ccccc2CCc2ccccc21", "note": "[Desipramine, desipramine]", "values": [{"measurement": "Half-life", "setting": "[1]; human, in vivo", "result": "12 to 24", "unit": "h"}, {"measurement": "Therapeutic plasma level", "setting": "[1]; in vivo", "result": "125 to 300", "unit": "ng/mL"}, {"measurement": "Time to reach steady state", "setting": "[1]; in vivo", "result": "2 to 11", "unit": "days"}]}, {"smiles": "CNCCCC12CCC(c3ccccc31)c1ccccc12", "note": "[Maprotiline, maprotiline]", "values": [{"measurement": "Time to reach steady state", "setting": "[1]; Table 6", "result": "6 to 10", "unit": "days"}, {"measurement": "Therapeutic plasma level", "setting": "[1]; [3]", "result": "200 to 300", "unit": "ng/mL"}, {"measurement": "Half-life", "setting": "[1]; human, in vivo", "result": "21 to 25", "unit": "h"}]}, {"smiles": "CN(C)CCCN1c2ccccc2CCc2ccc(Cl)cc21", "note": "[Clomipramine, 3-chloro-10,11-dihydro-N,N-dimethyl-5H-benzo-[b,f]azepine-5-propamine]", "values": [{"measurement": "Amine Uptakes Blocking Activity Norepinephrine", "setting": "norepinephrine uptake", "result": "++"}, {"measurement": "Interaction and blocking activity at the norepinephrine receptor site", "setting": "norepinephrine uptake", "result": "modest or slight"}, {"measurement": "Therapeutic Plasma Level", "setting": "[1]; in vivo", "result": "80 to 100", "unit": "ng/mL"}, {"measurement": "Therapeutic plasma level", "setting": "[1]; in vivo", "result": "80 to 100", "unit": "ng/mL"}, {"measurement": "Time to Reach Steady State", "setting": "[1]; in vivo", "result": "7 to 14", "unit": "days"}, {"measurement": "Time to reach steady state", "setting": "[1]; in vivo", "result": "7 to 14", "unit": "days"}, {"measurement": "Owner-noted change in aggressive behavior", "setting": "[2]; Case 1, Australian Shepherd, 25 mg daily, after one week's treatment", "result": "slight improvement"}, {"measurement": "Improvement in aggression behavior", "setting": "[2]; Case 1, Australian Shepherd, 25 mg daily, after several weeks' treatment", "result": "maintained"}, {"measurement": "Owner-rated improvement of behavior", "setting": "[2]; Case 1, Australian Shepherd, 25 mg daily, three weeks after start", "result": "50-75%"}, {"measurement": "Owner rating of behavior", "setting": "[2]; Case 2, Lhasa Apso, dominance and territorial aggression, approx. 1 mg/kg twice a day for one week then approx. […] twice a day, after two weeks", "result": "slightly improved"}, {"measurement": "Persistence of improvement in aggressive behavior", "setting": "[2]; Case 2, Lhasa Apso, through the eight weeks following termination of administration", "result": "sustained"}, {"measurement": "Improvement in behavior", "setting": "[2]; Case 3, German Shepherd, fear and territorial aggression, once a day slightly less than 1 mg/kg, after two weeks", "result": "Moderate improvement"}, {"measurement": "Improvement in behavior", "setting": "[2]; Case 3, German Shepherd, once a day slightly less than 1 mg/kg, eight weeks after initiation", "result": "moderate improvement"}, {"measurement": "Owner-rated improvement in behavior", "setting": "[2]; Case 4, Cocker Spaniel, dominance/fear aggression, orally 25 mg daily, after one week", "result": "25-50%"}, {"measurement": "Owner-reported behavior", "setting": "[2]; Case 4, Cocker Spaniel, orally 25 mg daily, after one month", "result": "much calmer on the street"}, {"measurement": "Improvement in behavior", "setting": "[2]; [4]", "result": "50-75%"}, {"measurement": "Owner-reported behavior", "setting": "[2]; [4]", "result": "essentially non-aggressive"}, {"measurement": "Owner-reported behavior", "setting": "[2]; Case 4, Cocker Spaniel, orally 25 mg daily, after two weeks", "result": "fine in the house"}, {"measurement": "Overall effectiveness for treatment of interspecific affective aggression in dogs", "setting": "[2]; conclusion from the four case histories, no behavior modification therapy", "result": "very effective"}]}, {"smiles": "CN(C)CCC=C1c2ccccc2COc2ccccc21", "note": "[Doxepin, doxepin]", "values": [{"measurement": "Half-life", "setting": "[1]; human, in vivo", "result": "8 to 24", "unit": "h"}, {"measurement": "Time to reach steady state", "setting": "[1]; in vivo", "result": "2 to 8", "unit": "days"}]}, {"smiles": "CC(CN(C)C)CN1c2ccccc2CCc2ccccc21", "note": "(stereo not drawn) [Trimipramine, trimipramine]", "values": [{"measurement": "Half-life", "setting": "[1]; Table 6", "result": "7 to 30", "unit": "h"}, {"measurement": "Time to reach steady state", "setting": "[1]; in vivo", "result": "2 to 6", "unit": "days"}]}, {"smiles": "CN[C@H]1CC[C@@H](c2ccc(Cl)c(Cl)c2)c2ccccc21", "note": "[Sertraline, sertraline]", "values": [{"measurement": "Time to reach steady state", "setting": "[1]; in vivo", "result": 7, "unit": "days"}]}, {"smiles": "CC(C)NCC(O)COc1cccc2ccccc12", "note": "(stereo not drawn) [inclerol]", "values": [{"measurement": "Effect on aggressive behavior", "setting": "[2]; Case 1, Australian Shepherd, 14-year old castrated male, beta-blocker for one week", "result": "only increased his aggressive behavior"}]}]}
